The record followed here is patent publication US7964607B2, “Pyrazolo[3,4-d]pyrimidine compounds” (Pfizer Inc., priority 2007, dated 2011).

pIC50: −log10 of the molar value.

One assay deals with T1, human recombinant PDE9 enzyme (Homo sapiens, UniProt O76083).
T1 construct: made in house; host or cells: SF-9 insect cells
T1 sequence (O76083 whole entry): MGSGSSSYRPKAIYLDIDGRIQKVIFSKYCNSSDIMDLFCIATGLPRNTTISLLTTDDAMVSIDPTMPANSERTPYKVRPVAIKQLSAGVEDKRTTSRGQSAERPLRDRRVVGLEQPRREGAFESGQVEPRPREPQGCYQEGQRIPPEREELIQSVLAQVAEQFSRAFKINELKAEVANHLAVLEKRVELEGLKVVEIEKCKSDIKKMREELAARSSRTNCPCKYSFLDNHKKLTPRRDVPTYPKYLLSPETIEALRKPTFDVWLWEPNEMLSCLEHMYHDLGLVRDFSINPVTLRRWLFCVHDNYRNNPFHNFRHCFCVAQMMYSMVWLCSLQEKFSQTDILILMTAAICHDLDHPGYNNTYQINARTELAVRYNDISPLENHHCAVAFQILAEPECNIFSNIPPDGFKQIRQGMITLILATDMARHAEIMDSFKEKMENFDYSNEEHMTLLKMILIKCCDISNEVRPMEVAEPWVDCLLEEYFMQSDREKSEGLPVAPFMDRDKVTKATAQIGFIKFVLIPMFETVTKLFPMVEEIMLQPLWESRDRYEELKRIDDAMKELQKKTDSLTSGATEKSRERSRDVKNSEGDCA
As to the kind of experiment: Phosphodiesterase 9 (PDE9) inhibitory activity, Scintillation Proximity (SPA) assay. The assay is classed as biochemical. The conditions noted are these: human recombinant PDE9 from SF-9 cells; 50 nM [3H]cGMP; room temperature, 30 min; Examples 3-114; read-out: G5678A (U): IC50. A digest of the protocol: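 Scintillation proximity read-out of [3H]cGMP hydrolysis after 30 min at room temperature, with enzyme addition starting the reaction. The enzyme was human recombinant PDE9 expressed in SF-9 cells, titrated to keep substrate turnover at 20% or less. Compound wells held 2% DMSO final, and background was defined with excess PDE inhibitor.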
For the compound `CC(C)n1ncc2c(=O)[nH]c([C@@H]3CN(Cc4ccc5ccccc5n4)C[C@H]3C)nc21` (racemic) [Example 32, 1-isopropyl-6-[(3,4-trans)-4-methyl-1-(quinolin-2-ylmethyl)pyrrolidin-3-yl]-1,5-dihydro-4H-pyrazolo[3,4-d]pyrimidin-4-one], the negative-log IC50 (pIC50) is 8.28.
Same read-out and setting: next, `CC[C@@H]1CN(Cc2cnc3ccccc3c2)C[C@H]1c1nc2c(cnn2C(C)C)c(=O)[nH]1` (racemic) [Example 44, 6-[(3,4-trans)-4-ethyl-1-(quinolin-3-ylmethyl)pyrrolidin-3-yl]-1-isopropyl-1,5-dihydro-4-H-pyrazolo[3,4-d]pyrimidin-4-one]: 7.96; `Cc1cnc(CN2C[C@@H](C)[C@H](c3nc4c(cnn4C(C)C)c(=O)[nH]3)C2)cn1` [Example 50, 1-isopropyl-6-{(3S,4S)-4-methyl-1-[(5methylpyrazin-2-yl)methyl]pyrrolidin-3-yl}-1,5-dihydro-4H-pyrazolo[3,4-d]pyrimidin-4-one]: 6.90; `Cc1cccnc1CN1C[C@@H](C)[C@H](c2nc3c(cnn3C3CCCC3)c(=O)[nH]2)C1` (racemic) [Example 27, 1-cyclopentyl-6-{(3,4-trans)-4-methyl-1-[(3-methylpyridin-2-yl)methyl]pyrrolidin-3-yl}-1,5-dihydro-4H-pyrazolo[3,4-d]pyrimidin-4-one]: 8.13.
For the compound `COc1ccc(CN2C[C@@H](C)[C@H](c3nc4c(c(C)nn4C4CCOCC4)c(=O)[nH]3)C2)cn1` [Example 94, 6-{(3S,4S)-1-[(6-methoxypyridin-3yl)methyl]-4-methylpyrrolidin-3-yl}-3methyl-1-(tetrahyrdro-2H-pyran-4-yl)-1,5-dihydro-4H-pyrazolo[3,4-d]pyrimidin-4-one], the negative logarithm of the IC50 (pIC50) was 7.85.
Same read-out and setting: next, `C[C@@H]1CN(Cc2ccccc2)C[C@H]1c1nc2c(cnn2C2CCC2)c(=O)[nH]1` (racemic) [Example 72, 6-[(3,4-trans)-1-benzyl-4-methylpyrrolidin-3-yl]-1-cyclobutyl-1,5-dihydro-4H-pyrazolo[3,4-d]pyrimidin-4-one]: 7.40; `C[C@@H]1CN(C(=O)c2ccccc2)C[C@H]1c1nc2c(cnn2C2CCCC2)c(=O)[nH]1` (racemic) [Example 6, 6-[(3,4-trans)-1-benzoyl-4-methylpyrrolidin-3-yl]-1-cyclopentyl-1,5-dihydro-4H-pyrazolo[3,4-d]pyrimidin-4-one]: 7.24; `O=c1[nH]c(C2CCN(Cc3ccccc3)C2)nc2c1cnn2C1CCCC1` (stereo not shown) [Example 42, 6-(1-benzylpyrrolidin-3-yl)-1-cyclopentyl-1,5-dihydro-4H-pyrazolo[3,4-d]pyrimidin-4-one]: 6.57.
As for `C[C@@H]1CN(Cc2ccc3ccccc3n2)C[C@H]1c1nc2c(cnn2C2CCCC2)c(=O)[nH]1` (racemic) [Example 9, 1-cyclopentyl-6-[(3,4-trans)-4-methyl-1-(quinolin-2-ylmethyl)pyrrolidin-3-yl]-1,5-dihydro-4H-pyrazolo[3,4-d]pyrimidin-4-one], the pIC50 is 8.55.
`CC[C@@H]1CN(Cc2ccc(OC)nc2)C[C@H]1c1nc2c(cnn2C(C)C)c(=O)[nH]1` (racemic) [Example 45, 6-{(3,4-trans)-4-ethyl-1-[(6-methoxypyridin-3-yl)methyl]pyrrolidin-3-yl}-1-isopropyl-1,5-dihydro-4H-pyrazolo[3,4-d]pyrimidin-4-one]: the pIC50 was 7.41.
The same measure, in the same setting: the result for `C[C@@H]1CN(Cc2cnc3ccccc3n2)C[C@H]1c1nc2c(cnn2C2CCOCC2)c(=O)[nH]1` [Example 85] reads 9.04; that for `CC(C)n1ncc2c(=O)[nH]c([C@@H]3CN(Cc4ccnc5cccnc45)C[C@H]3C)nc21` [Example 65, 1-isopropyl-6-[(3S,4S)-4-methyl-1-(1,5-naphthyridin-4-ylmethyl)pyrrolidin-3-yl]-1,5-dihydro-4H-pyrazolo[3,4-d]pyrimidin-4-one], 7.77; that for `COc1ccc(CN2C[C@@H](C)[C@H](c3nc4c(cnn4C4CCCC4)c(=O)[nH]3)C2)cn1` (racemic) [Example 25, 1-cyclopentyl-6-{(3,4-trans)-1-[(6-methoxypyridin-3-yl)methyl]-4-methylpyrrolidin-3-yl}-1,5-dihydro-4H-pyrazolo[3,4-d]pyrimidin-4-one], 8.04.
Take `C[C@@H]1CN(Cc2ccc3nccnc3c2)C[C@H]1c1nc2c(cnn2C2CCCC2)c(=O)[nH]1` [Example 23, 1-cyclopentyl-6-[(3S,4S)-4-methyl-1-(quinoxalin-6-ylmethyl)pyrrolidin-3-yl]-1,5-dihydro-4H-pyrazolo[3,4-d]pyrimidin-4-one]: the pIC50 was 8.88.

The assay is the same for the next values; noted with them: human recombinant PDE9 from SF-9 cells; 50 nM [3H]cGMP; room temperature, 30 min; additional compounds Ex. 115-228; read-out: G5678A (U):IC50.
Turning to `C[C@@H]1CN(Cc2cc3ccccc3nn2)C[C@H]1c1nc2c(cnn2C2CCCC2)c(=O)[nH]1` (racemic) [Example 182, 6-[(3,4-trans)-1-(cinnolin-3-ylmethyl)-4-methylpyrrolidin-3-yl]-1-cyclopentyl-1,5-dihydro-4H-pyrazalo[3,4-d]pyrimidin-4-one], the negative logarithm of the IC50 (pIC50) was 7.65.
On the same count and under the same terms, next, `C[C@@H]1CN(Cc2cnn3c2CCC3)C[C@H]1c1nc2c(cnn2C2CCCC2)c(=O)[nH]1` (racemic) [Example 228, 1-cyclopentyl-6-[(3,4-trans)-1-(5,6-dihydro-4H-pyrrolo[1,2-b]pyrazol-3-ylmethyl)-4-methylpyrrolidin-3-yl]-1,5-dihydro-4H-pyrazolo[3,4-d]pyrimidin-4-one]: 7.31; `C[C@@H]1CN(Cc2ccc(CN3CCOCC3)cc2)C[C@H]1c1nc2c(cnn2C2CCCC2)c(=O)[nH]1` (racemic) [Example 207, 1-cyclopentyl-6-{(3,4-trans)-4-methyl-1-[4-(morpholin-4-ylmethyl)benzyl]pyrrolidin-3-yl}-1,5-dihydro-4H-pyrazolo[3,4-d]pyrimidin-4-one]: 7.34; `C[C@@H]1CN(Cc2nccs2)C[C@H]1c1nc2c(cnn2C2CCCC2)c(=O)[nH]1` (racemic) [Example 165, 1-cyclopentyl-6-[(3,4-trans)-4-methyl-1-(1,3-thiazol-2-ylmethyl)pyrrolidin-3-yl]-1,5-dihydro-4H-pyrazolo[3,4-d]pyrimidin-4-one]: 7.27.
For `C[C@@H]1CN(Cc2ccc(-n3ccnc3)cc2)C[C@H]1c1nc2c(cnn2C2CCCC2)c(=O)[nH]1` (racemic) [Example 123, 1-cyclopentyl-6-{(3,4-trans)-1-[4-(1H-imidazol-1-yl)benzyl]-4-methylpyrrolidin-3-yl}-1,5-dihydro-4H-pyrazolo[3,4-d]pyrimidin-4-one], the pIC50 is 7.41.
Same read-out and setting: next, `C[C@@H]1CN(Cc2ccc(C(F)(F)F)cc2)C[C@H]1c1nc2c(cnn2C2CCCC2)c(=O)[nH]1` (racemic) [Example 225]: 7.46; `Cc1ccn2c(CN3C[C@@H](C)[C@H](c4nc5c(cnn5C5CCCC5)c(=O)[nH]4)C3)c(C)nc2c1` (racemic) [Example 186, 1-cyclopentyl-6-{(3,4-trans)-1-[(2,7-dimethylimidazo[1,2-a]pyridin-3-yl)methyl]-4-methylpyrrolidin-3-yl}-1,5-dihydro-4H-pyrazolo[3,4-d]pyrimidin-4-one]: 6.81; `C[C@@H]1CN(Cc2cc(Cl)cc(Cl)c2)C[C@H]1c1nc2c(cnn2C2CCCC2)c(=O)[nH]1` (racemic) [Example 187, 1-cyclopentyl-6-[(3,4-trans)-1-(3,5-dichlorobenzyl)-4-methylpyrrolidin-3-yl]-1,5-dihydro-4H-pyrazolo[3,4-d]pyrimidin-4-one]: 7.15.
Same read-out and setting: the result for `Cc1ncc(CN2C[C@@H](C)[C@H](c3nc4c(cnn4C4CCCC4)c(=O)[nH]3)C2)s1` (racemic) [Example 131, 1-cyclopentyl-6-{(3,4-trans)-4-methyl-1-[(2-methyl-1,3-thiazol-5-yl)methyl]pyrrolidin-3-yl}-1,5-dihydro-4H-pyrazolo[3,4-d]pyrimidin-4-one] reads 7.38.
Turning to `Cc1ccc(CN2C[C@@H](C)[C@H](c3nc4c(cnn4C4CCCC4)c(=O)[nH]3)C2)c(F)c1F` (racemic) [Example 134, 1-cyclopentyl-6-[(3,4-trans)-1-(2,3-difluoro-4-methylbenzyl)-4-methylpyrrolidin-3-yl]-1,5-dihydro-4H-pyrazolo[3,4-d]pyrimidin-4-one], the pIC50 was 7.03.
For the compound `CCc1ncc(CN2C[C@@H](C)[C@H](c3nc4c(cnn4C4CCCC4)c(=O)[nH]3)C2)cn1` (racemic) [Example 168, 1-cyclopentyl-6-{(3,4-trans)-1-[(2-ethylpyrimidin-5-yl)methyl]-4-methylpyrrolidin-3-yl}-1,5-dihydro-4H-pyrazolo[3,4-d]pyrimidin-4-one], the pIC50 is 7.51.
Same read-out and setting: the result for `Cc1cccc(C)c1CN1C[C@@H](C)[C@H](c2nc3c(cnn3C3CCCC3)c(=O)[nH]2)C1` (relative stereo) [Example 195, 1-cyclopentyl-6-[(3,4-trans)-1-(2,6-dimethylbenzyl)-4-methylpyrrolidin-3-yl]-1,5-dihydro-4H-pyrazolo[3,4-d]pyrimidin-4-one] reads 6.70; that for `CCOc1ccc(CN2C[C@@H](C)[C@H](c3nc4c(cnn4C4CCCC4)c(=O)[nH]3)C2)cc1` (racemic) [Example 173], 7.19; that for `Cc1ccc(CN2C[C@@H](C)[C@H](c3nc4c(cnn4C4CCCC4)c(=O)[nH]3)C2)cc1F` (relative stereo) [Example 143, 1-cyclopentyl-6-[(3,4-trans)-1-(3-fluoro-4-methylbenzyl)-4-methylpyrrolidin-3-yl]-1,5-dihydro-4H-pyrazolo[3,4-d]pyrimidin-4-one], 7.45.
